The results in this text go back to the NIST ThermoML archive (doi:10.1021/acs.jced.6b01038).

For series [1] the following is noted: 298.15 K; 101.3 kPa; Liquid; Vibrating tube method.
The nature of series [2]: refractive index (Na D-line) (dimensionless). The conditions noted are these: 298.15 K; 101.3 kPa; Liquid; Standard Abbe refractometry.

Numbers after ± are expanded uncertainties.

A word on the mass density: it is the mass of a sample divided by its volume. As usually defined, the refractive index is the speed of light in vacuum divided by its phase velocity in the sample. In the case of `CCN(CC)CCO` [(diethylamino)ethanol], the mass density in series [1] was found to be 880 ± 5 kg/m3. Besides, the refractive index in series [2] was found to be 1.43833 ± 0.001.
For `CNCCCN` [N-methyl-1,3-diaminopropane], in that order: 848 ± 5 kg/m3 and 1.44564 ± 0.0012.
For `CN(CCO)CCO` [N-methyldiethanolamine], in that order: 1037 ± 2 kg/m3 and 1.4674 ± 0.0011.
Take `O` [water]: the refractive index in series [2] is reported as 1.33249 ± 0.001.
